Reference: patent US20250282746A1, “HALOGEN-SUBSTITUTED ISOINDOLINE COMPOUND AND USE THEREOF” (CHENGDU FENDI PHARMACEUTICAL CO., LTD., priority 2022, published 2025)
Read-outs that look alike come from different tables or passages of the source.

Assays:
AML-2 cells = test: Antiproliferative activity against various tumor cells: AML-2; format: cell-based; settings: 72 h, read-out: Antiproliferative activity IC50 AML-2
Description: U937, NCI-H929, AML-2, and MOLM-13 cells in the logarithmic growth phase were diluted in media RPMI+10% FBS, RPMI+10% FBS, MEMα+20% FBS, RPMI+20% FBS, respectively, and plated at 4,000 cells/well in 96-well whole black plates (WHB) with 50 μL/well. After plating, the plates were incubated in an incubator at 5% CO2 and 37° C. for 24 h before the compounds were added. The compounds were prepared into a 10 mM stock solution in DMSO and diluted in a culture medium to the desired concentrations (a final DMSO concentration of 0.2%). […] The plates were incubated at 5% CO2 and 37° C. for 72 h. After the incubation was complete, the plates were equilibrated at room temperature for 30 min. CellTiter-Glo® Reagent (Promega G7573) was added at 100 μL/well. The plates were shaken for 12 min on a microplate shaker. The luminescence value was measured at room temperature by the GloMax navigator (Promega GM2010).

CK1α = biological target: T1, CK1α (Homo sapiens, UniProt P48729); test: Degradation of CK1α protein in HL-60 cells (Western blot); format: cell-based; settings: 4 h
T1 construct: The whole cell lysate was prepared using a RIPA lysis buffer; endogenous in cells; host or cells: HL-60 cells
Description: (§1) […] of DMSO and the compounds were added, and the mixture was incubated in an incubator at 5% CO2 and 37° C. for 4 h. The cells were centrifuged, and the culture medium was discarded. PBS was added for washing and then discarded. The whole cell lysate was prepared using a RIPA lysis buffer containing a protease inhibitor cocktail and a phosphatase inhibitor, and incubated on ice for 30 min. The mixture was centrifuged, and the cell debris was discarded. The whole cell lysate supernatant was collected and transferred to a fresh EP tube. Samples were prepared using a loading buffer after a BCA protein assay. The samples were incubated in a metal bath at 100° C. for 10 min. The samples were electrophoretically separated from proteins on a 4-20% precast gel (SDS-PAGE gel), transferred to a PVDF membrane, blocked with 5% NFDM/TBST for 1 h at room temperature, co-incubated overnight at 4° C. with the primary antibody, and co-incubated for 2 h at room temperature with the secondary antibody on the next day. The signals were detected on the […]™ imaging system.

c-Myc = biological target: T2, c-Myc (Homo sapiens, UniProt P01106); test: Degradation of c-MYC protein in HL-60 cells (Western blot); format: cell-based; settings: 4 h
T2 construct: The whole cell lysate was prepared using a RIPA lysis buffer; endogenous in cells; host or cells: HL-60 cells
Description: as §1

NCI-H929 cells = test: Antiproliferative effect alone and in combination with dexamethasone against NCI-H929 cells; format: cell-based; settings: for IC50: Homo sapiens, NCI-H929, 72 h, 72 h
Description: (§2) MOLM-13 cells in the logarithmic growth phase were diluted in a medium RPMI+[…], and NCI-H929 cells were diluted in a medium RPMI+10% FBS. The cells were plated at 4,000 cells/well in 96-well whole black plates (WHB) with 50 μL/well. After plating, the plates were incubated in an incubator at 5% CO2 and 37° C. for 24 h before the compounds were added. The compounds were prepared into a 10 mM stock solution in DMSO and diluted in a culture medium to the desired concentrations (a final DMSO concentration of 0.2%). 50 μL of the compound dilutions at final concentrations of 10,000, 3,333.33, 1,111.11, 370.37, 123.46, 41.15, 13.72, 4.57, 1.52, and 0 nM were added to the 96-well plates containing the cells, that is, each compound was serially diluted to 10 concentrations in duplicate. The plates were incubated at 5% CO2 and 37° C. for 72 h. When pharmaceutical partners were used, the concentrations of azacitidine and dexamethasone were kept at 200 nM and 500 nM respectively, and the compounds were serially three-fold diluted from 10,000 nM. After the incubation was complete, the plates were equilibrated at room temperature for 30 min. CellTiter-Glo® Reagent (Promega G7573) was added at 100 μL/well. The plates were shaken for 12 min on a microplate shaker. The luminescence value was measured at room temperature by the GloMax navigator (Promega GM2010). The IC50 values were calculated using the GraphPad Prism 7 software with the 0 nM control group as 0% inhibition.

MV-4-11-Luc xenograft = test: Efficacy in acute myeloid leukemia MV-4-11-luc xenograft mouse model; format: in vivo; settings: 10 mg/kg orally twice daily, NSG mice
Excerpt: In an in vivo efficacy study, female immunocompromised NSG mice aged 6 to 8 weeks were used and the experimental procedures started after the animals were acclimatized in the experimental environment for 7 days. The animals were housed in SPF animal rooms in individually ventilated cages (IVCs) each containing 6 mice. Human acute myeloid leukemia MV-4-11 cells expressing luciferase (MV-4-11-luc) were grafted into mice by tail vein injection (5×10^6 cells/mouse). Seven days after the cell grafting, the mice were subjected to imaging on the IVIS Lumina III small animal imaging system for grouping and administration, and tumor-bearing mice were randomized to the vehicle control group or treatment groups (6 mice/group). The compound (10 mg/kg, twice daily) was administered to the animals in each treatment group by oral gavage. The body weight was measured daily, while mean luminescence was measured after the start of treatment with the compounds or vehicle.
Indicators: The indicators were to investigate whether the tumor growth was inhibited or delayed or the tumor was cured. The tumor size was measured twice weekly using the IVIS Lumina III small animal imaging system. The tumor signals were determined by exposure photons per second. The anti-tumor efficacy of the compounds was evaluated by the tumor proliferation rate T/C (%). T/C %=TRTV/CRTV×100% (TRTV: the RTV of the treatment group; CRTV: the RTV of negative control group; RTV=Vt/V0, where V0 is the tumor signal measured at the time of grouping and administration (i.e., day 0), and Vt is the tumor signal at every measurement). According to the guidelines of the Center for Drug Evaluation, NMPA, a T/C (%) of >40% denotes the absence of efficacy, while a T/C of <40% with P<0.05 denotes the presence of efficacy.

MOLM-13 cells = test: Antiproliferative effect alone and in combination with azacitidine against MOLM-13 cells; format: cell-based; settings: MOLM-13 cells; for IC50: Homo sapiens, MOLM-13, 72 h, 72 h
Description: as §2

T1 sequence (P48729 whole entry): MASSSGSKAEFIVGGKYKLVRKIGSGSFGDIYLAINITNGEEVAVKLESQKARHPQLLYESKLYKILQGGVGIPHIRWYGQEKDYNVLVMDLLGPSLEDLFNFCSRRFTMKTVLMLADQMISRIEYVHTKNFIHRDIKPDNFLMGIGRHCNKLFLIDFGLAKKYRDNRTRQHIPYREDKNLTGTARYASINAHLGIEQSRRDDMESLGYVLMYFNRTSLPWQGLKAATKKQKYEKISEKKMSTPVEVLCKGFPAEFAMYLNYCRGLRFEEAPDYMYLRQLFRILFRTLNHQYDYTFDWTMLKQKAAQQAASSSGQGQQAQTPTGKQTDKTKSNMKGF
T2 sequence (P01106 whole entry): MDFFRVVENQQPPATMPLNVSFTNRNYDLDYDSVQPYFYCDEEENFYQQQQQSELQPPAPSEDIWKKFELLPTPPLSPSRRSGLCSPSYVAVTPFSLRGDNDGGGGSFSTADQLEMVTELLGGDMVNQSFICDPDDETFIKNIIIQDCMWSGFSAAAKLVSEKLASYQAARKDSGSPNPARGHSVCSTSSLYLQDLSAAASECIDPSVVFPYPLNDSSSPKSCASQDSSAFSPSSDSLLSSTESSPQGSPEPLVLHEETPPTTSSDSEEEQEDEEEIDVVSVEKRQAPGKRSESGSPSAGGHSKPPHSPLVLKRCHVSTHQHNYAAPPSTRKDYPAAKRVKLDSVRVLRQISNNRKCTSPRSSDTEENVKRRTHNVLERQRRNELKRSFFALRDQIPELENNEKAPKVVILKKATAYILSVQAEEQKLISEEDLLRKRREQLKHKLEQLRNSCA

| SMILES | IC50 (AML-2 cells) | CK1α degradation (CK1α; 10 nM) | CK1α degradation (CK1α; 100 nM) | CK1α degradation (CK1α; 1000 nM) | c-Myc degradation (c-Myc; 10 nM) | c-Myc degradation (c-Myc; 100 nM) | c-Myc degradation (c-Myc; 1000 nM) | increase of antiproliferative activity IC50 when combined with 500 nM dexamethasone (NCI-H929 cells) | IC50 (NCI-H929 cells; compound alone) | IC50 (NCI-H929 cells; in combination with 500 nM dexamethasone) | T/C (%) Day 3 (MV-4-11-Luc xenograft) | T/C (%) Day 7 (MV-4-11-Luc xenograft) | T/C (%) Day 10 (MV-4-11-Luc xenograft) | T/C (%) Day 14 (MV-4-11-Luc xenograft) | IC50 (AML-2 cells; AML-2 cells) | IC50 (MOLM-13 cells; compound alone) | IC50 (MOLM-13 cells; in combination with 200 nM azacitidine) | activity relative to CC-90009, alone or in combination with azacitidine (MOLM-13 cells) | increase of antiproliferative activity IC50 when combined with 200 nM azacitidine (MOLM-13 cells) |
| --- | --- | --- | --- | --- | --- | --- | --- | --- | --- | --- | --- | --- | --- | --- | --- | --- | --- | --- | --- |
| O=C1CCC(N2Cc3c(ccc(CNC(=O)c4ccc(Cl)cc4)c3F)C2=O)C(=O)N1 (centres unmarked) [FDAB-48] | 100 to 1000 nM | D (D denotes a percentage of degradation less than 25%) | D (D denotes a percentage of degradation less than 25%) | D (D denotes a percentage of degradation less than 25%) | D (D denotes a percentage of degradation less than 25%) | D (D denotes a percentage of degradation less than 25%) | C (C denotes a percentage of degradation less than 500% but not less than 250%) | about 6 folds | 14.3 nM | 2.45 nM | 0.95% | 0.22% | 0.10% | 0.05% | – | – | – | – | – |
| Cc1ccc(C(=O)NCc2ccc3c(c2F)CN(C2CCC(=O)NC2=O)C3=O)c(F)c1 (centres unmarked) [FDAB-121] | – | D (D denotes a percentage of degradation less than 25%) | D (D denotes a percentage of degradation less than 25%) | C (C denotes a percentage of degradation less than 500% but not less than 250%) | D (D denotes a percentage of degradation less than 25%) | D (D denotes a percentage of degradation less than 25%) | D (D denotes a percentage of degradation less than 25%) | – | – | – | 0.32% | 0.06% | 0.02% | 0.00% | 10 to 100 nM | 248 nM | 9.68 nM | about 5 folds | about 25 folds |
